From patent US9662347B2, “Method for inhibiting the induction of cell death by inhibiting the synthesis or secretion of age-albumin in cells of the mononuclear phagocyte system” (Gachon University of Industry-Academic Cooperation …, priority 2010, dated 2017)

Assays:
[1] = tested on: α-synuclein, TNF-α and AGE-albumin in human microglial cells; assay type: cell-based; conditions: for expression level of α-synuclein or TNF-α in human microglial cells: PCR and immunoblotting; for expression level of AGE-albumin: irrespective of rotenone treatment
Method: Human microglial cells were cultured at 37° C. in DMEM (Gibco, 10% FBS (Gibco), 0.1% gentamicin (Gibco), a high concentration of glucose) at 37° C. in a 5% CO2 incubator. Then, the microglial cells were exposed to rotenone (Sigma, 1 nM), a causative agent of Parkinson's disease, for 10 days or to 6-hydroxydopamine (6-OHDA) for 24 hrs to prepare a cell model of Parkinson's disease.
α-Synuclein or TNF-α is present at a high level in the brain tissue of Parkinson's disease patients.

[2] = tested on: rotenone-mediated neuronal cell death; test: Rotenone mouse model, number of neuronal cells in brain tissues (cresyl violet staining); assay type: in vivo; conditions: rotenone mice; for level of cell death in mouse brain tissues: substance injected into brain, one week and one month, compared to PBS
Method: CBL57/bL6 mice, each weighing 20-25 g, were used as experimental animals. The mice were maintained on a 12-h light-dark cycle, allowed to have access to food and water ad libitum, and acclimated for at least 1 week prior to usage. All animal experiments were approved by the Institute Animal Care and Use Committee, and were conducted humanely.
(§2) The animal models of Parkinson's disease were anaesthetized with ketamine (0.75 mg/kg body weight) and rompun (0.2 mg/kg body weight) prior to surgical procedures. For in vivo treatments, phosphate buffered saline (PBS) and sRAGE (10 ng/μL) were dissolved at a concentration of 1 mM in sterile water and kept at 4° C. until use. The head was fixed on a stereotaxic instrument before a midline incision of the scalp skin was made. The skull was pierced with a biological electric drill at the bregma (posteriorly, 0.3 mm; laterally, 2 mm) and the needle (gauge 26) on a 10-μL Hamilton syringe was lowered vertically until it reached the target area (depth, 2.5 mm). Three microliters of sRAGE were injected slowly at the rate of 1 μL per minute with an automatic microinjector. Thereafter, the syringe was removed slowly and surgical wounds were sutured with wound clips followed by topical treatment with antibiotics. For control, PBS was injected into the entorhinal cortex of normal mice.
Most mice were bred for one week and one month after injection of sRAGE. During the breeding, oral administration of rotenone still continued. Afterwards, all mice were re-anaesthetized in the same manner, and perfused transcardially with 100˜200 mL of heparinized saline at 18° C. followed by 400 mL of 4% paraformaldehyde-lysine periodate in 0.1 M sodium phosphate buffer (pH, 7.4). The brains were removed, placed in the same fixative for 4 hrs at 4° C., and then transferred into ice-cold 0.1 M phosphate-buffered saline (PBS) containing 20% sucrose. […]
The relative levels of neurons in mouse brain tissues were evaluated by cresyl violet staining after PBS, rotenone, or rotenone/sRAGE administration for one week and one month before microscopy.

[3] = tested on: AGE-albumin, RAGE, and Bax in mouse brain tissues; test: Rotenone mouse model, fluoroimmunostaining of AGE-albumin, RAGE and Bax in brain tissues; assay type: in vivo; conditions: versus rotenone alone; one week and one month
Method: as §2
Most mice were bred for one week and one month after injection of sRAGE. During the breeding, oral administration of rotenone still continued. Afterwards, all mice were re-anaesthetized in the same manner, and perfused transcardially with 100˜200 mL of heparinized saline at 18° C. followed by 400 mL of 4% paraformaldehyde-lysine periodate in 0.1 M sodium phosphate buffer (pH, 7.4). […]

[4] = tested on: AGE-albumin in human microglial cells; test: AGE-albumin in human microglial cell model of stroke (oxygen and glucose deprivation); assay type: cell-based; conditions: for amount / expression level of AGE-albumin in stroke model cells (immunoblot): 0˜1000 μM H2O2, ascorbic acid irrespective of hypoxia and glucose deprivation; for expression level of AGE-albumin in stroke model cells: 0, 50, 200, 500, 2000 ng/mL, hypoxic and glucose-deprived
Method: Human microglial cells were cultured at 37° C. in DMEM (Gibco, 10% FBS (Gibco), 0.1% gentamicin (Gibco), a high concentration of glucose) at 37° C. in a 5% CO2 incubator. Then, the microglial cells were exposed to glucose-free DMEM for 1 hr within a hypoxic (5% CO2 and 95% N2) chamber (Billups-Rothenberg, Del Mar, Calif.) to prepare a cell model of stroke.
Human microglial cell models of stroke were treated with HMGB1, which is known to secrete most abundantly upon stroke to excite microglial cells. Expression levels of AGE-albumin in the human microglial cell model of stroke were quantitated at various concentrations (0, 50, 200, 500, 2000 ng/mL) of HMGB1 using immunohistochemistry (IHC), ELISA, and immunoblotting.
A Human microglial cell model of stroke was exposed to various concentrations (0, 50, 200, 500, 2000 ng/mL) of the HMGB1 inhibitor glycyrrhizic acid, and quantitatively analyzed for AGE-albumin using ELISA and immunoblotting.

[5] = tested on: AGE-albumin in human microglial cells (HMO6); test: Synthesis and secretion of AGE-albumin in human microglial cells (co-immunoprecipitation, ELISA, immunoblot); assay type: cell-based; conditions: for amount / expression level of AGE-albumin (immunoblot): 0˜1000 μM H2O2, ascorbic acid irrespective of Aβ1-42 treatment
Method: (§1) For in vitro studies, the immortalized human microglial cell line HMO6 was used. HMO6 cells were grown in Dulbecco's modified Eagle's medium (DMEM, Gibco) containing a high glucose concentration, supplemented with 10% heat-inactivated fetal bovine serum (FBS, Gibco) and […] gentamycin (Sigma-Aldrich). These cells were maintained at 37° C. under 5% CO2. HMO6 cells were exposed to Aβ1-42 (Sigma-Aldrich) at concentrations from 0 to 400 nM. HMO6 cells were then harvested 6 hrs after Aβ1-42 treatment for further analysis.
Whole human microglial cell lysates prepared before and after Aβ 1-42 treatment were subjected to immunoblotting analysis. In this regard, whole cell lysates from human microglial cells before and after treatment with 0˜400 nM Aβ 1-42 were prepared with a RIPA (radioimmunoprecipitation assay) buffer containing 1 M Tris (pH 7.5), 5 M NaCl, 10% NP-40, 10% deoxycholate and a protease inhibitor cocktail (Calbiochem). All cell lysates (1 mg protein) were incubated overnight at 4° C. with 5 mg of anti-AGE (Abcam)-conjugated sepharose beads in […] of PBS. The sepharose beads were precipitated by centrifugation at 14,000 rpm for 5 min, and washed three times with 1 mL of washing buffer containing 50 mM Tris-Cl and 500 mM NaCl (pH 8.0). The IgG-bound antigen-antibody complex was resolved on a 4-12% polyacrylamide gel (Invitrogen), followed by immunoblot analysis with the respective antibodies (1:1000, Abcam).
After removal of already synthesized albumin by use of an anti-albumin antibody, intracellular and extracellular (secreted into culture media) levels of AGE-albumin were measured using ELISA. For this, human microglial cells were treated with 0-400 nM Aβ1-42, after which the culture media (0.1 mg protein) were harvested. Separately, the cells were lyzed to prepare cell lysates (0.5 mg protein). […] Following the addition of HRP-conjugated anti-mouse secondary antibody (1:1000, Vector Laboratories) to each well, color was developed with TMB (3,3′,5,5′-tetramethylbenzidine), and reaction was stopped with an equal volume of 2 M H2SO4. Absorbance at 450 nm was read on an ELISA plate reader (VERSA Max, Molecular Devices).
Aβ1-42 is known to accumulate over a long period of time by oxidative stress.

[6] = tested on: AGE-albumin in human microglial cells and rat brain tissues; test: Distribution and density of AGE-albumin after Aβ1-42 treatment (immunostaining, confocal microscopy); assay type: cell-based
Method: as §1
Cells were grown on Lab-Tek II slide chambers (Nunc), rinsed with PBS, fixed in methanol for 15 min, and rinsed again with PBS. […] After washing the secondary antibodies with PBS three times at regular intervals of 10 min, coverslips were mounted onto glass slides using the Vectashield mounting medium (Vector Laboratories), and examined under a laser confocal fluorescence microscope (LSM-710, Carl Zeiss).
Immunohistochemistry was conducted on murine brain tissues from normal or Alzheimer's disease rats, and human brain tissues from normal adults and Alzheimer's disease individuals [S. M. Ahn et al., PLoS ONE 3, e2829 (2008)]. […] After washing the secondary antibodies three times with PBS, coverslips were mounted onto glass slides using the Vectashield mounting medium (Vector Laboratories), and observed under a laser confocal fluorescence microscope (LSM-710, Carl Zeiss). […]

[7] = tested on: AGE-albumin in mouse blood monocytes; test: AGE-albumin in mouse blood monocytes (immunostaining); assay type: cell-based; conditions: compared to non-treated cells

In the case of NCCc1cc(O)c(O)cc1O [6-hydroxydopamine], the “expression level of α-synuclein or TNF-α in human microglial cells” value [1] is reported as “increased”.

N[C@@H](C(=O)N[C@@H]1C(=O)N2C(C(=O)O)=C(Cl)CS[C@H]12)c1ccccc1 [C-20, Cefaclor] was tested, and the “level of cell death in mouse brain tissues” value [2] was “significantly reduced level of cell death”, the “number of neurons in the injected region versus the non-injected region” value ([2]; predominant recovery in the substantia nigra) was “higher number of neurons” and the “AGE, albumin, Iba1, AGE-albumin, RAGE, and Bax expression / positive cells in mouse brain tissues” value [3] was “reduced”.

In the case of CC(=O)OCC1=C(C(=O)O)N2C(=O)[C@@H](NC(=O)Cc3cccs3)[C@H]2SC1 [C-21, Cephalothin sodium], the “level of cell death in mouse brain tissues” value [2] is reported as “significantly reduced level of cell death” and the “AGE, albumin, Iba1, AGE-albumin, RAGE, and Bax expression / positive cells in mouse brain tissues” value [3] is reported as “reduced”.

O=C1O[C@H]([C@@H](O)CO)C(O)=C1O [ascorbic acid] was tested, and the “amount / expression level of AGE-albumin in stroke model cells (immunoblot)” value [4] was “drastically reduced”, the “amount / expression level of AGE-albumin (immunoblot)” value [5] was “drastically reduced” and the “expression level of AGE-albumin” value [1] was “drastically reduced”.

For C=C1[C@@H](C)[C@H]2[C@H](Cc3ccccc3)NC(=O)[C@]23[C@H](OC(C)=O)/C=C/[C@@](C)(O)C(=O)[C@@H](C)C/C=C/[C@H]3[C@@H]1O [cytochalasin D], the “expression level of AGE-albumin” value [1] was “drastically reduced”.

CC1(C)[C@@H](O[C@H]2O[C@H](C(=O)O)[C@@H](O)[C@H](O)[C@H]2O[C@@H]2O[C@H](C(=O)O)[C@@H](O)[C@H](O)[C@H]2O)CC[C@]2(C)[C@H]3C(=O)C=C4[C@@H]5C[C@@](C)(C(=O)O)CC[C@]5(C)CC[C@@]4(C)[C@]3(C)CC[C@@H]12 [glycyrrhizic acid] was tested, and the “expression level of AGE-albumin in stroke model cells” value [4] was “significantly decreased with an increase in the concentration”.

With OO [hydrogen peroxide] the “amount / expression level of AGE-albumin in stroke model cells (immunoblot)” value [4] was “increased in a concentration-dependent manner”, the “amount / expression level of AGE-albumin (immunoblot)” value [5] was “increased in a concentration-dependent manner” and the “amounts of both α-synuclein and AGE-albumin” value ([1]; sequentially exposed to rotenone and H2O2 0˜1000 μM) was “increased in a concentration-dependent manner”.

In the case of C=C(C)[C@H]1Cc2c(ccc3c2O[C@@H]2COc4cc(OC)c(OC)cc4[C@@H]2C3=O)O1 [rotenone], the “expression level of AGE-albumin in both cell lysate and cell culture medium” value ([1]; 1 nM rotenone) is reported as “increased” and the “expression level of α-synuclein or TNF-α in human microglial cells” value [1] is reported as “increased”.

With “Aβ1-42: amyloid beta 1-42 (Sigma-Aldrich), activator of microglial cells” the “expression level of AGE-albumin in human microglial cells (co-immunoprecipitation)” value ([5]; 0˜400 nM Aβ1-42) was “increased with an increase in the concentration”, the “level of AGE-albumin in human microglial cell lysates (ELISA)” value ([5]; compared to non-treated lysates) was “significant increase” and the “expression level of AGE-albumin (immunostaining)” value ([6]; human microglial cells and rat brain tissue (cerebral cortex) after exposure to Aβ1-42) was “remarkable elevation”. For the same molecule, the “densities of AGE-albumin” value ([6]; microglial cells and rat brain tissues after versus before Aβ1-42 treatment) was “remarkably higher” and the “expression level of AGE-albumin in mouse blood monocytes” value [7] was “higher expression level”.

B1: HMGB1: high motility group protein B1, excites microglial cells upon stroke (protein, UniProt P09429 1-215, looked up)
High mobility group protein B1: MGKGDPKKPRGKMSSYAFFVQTCREEHKKKHPDASVNFSEFSKKCSERWKTMSAKEKGKFEDMAKADKARYEREMKTYIPPKGETKKKFKDPNAPKRPPSAFFLFCSEYRPKIKGEHPGLSIGDVAKKLGEMWNNTAADDKQPYEKKAAKLKEKYEKDIAAYRAKGKPDAAKKGVVKAEKSKKKKEEEEDEEDEEDEEEEEDEEDEDEEEDDDDE
B1 was tested, and the “expression level of AGE-albumin in stroke model cells” value [4] was “significantly increased with an increase in the concentration”.
